Experimental data from EPA's ToxRefDB 2.

Experiments:
mouse [1] = settings: Sub-acute repeat dose toxicity, Oral, Gavage/Intubation, dose end: 14 day, group: systemic
rat [2] = settings: Sub-acute repeat dose toxicity, Oral, Gavage/Intubation, dose end: 14 day, group: systemic
primate = settings: Sub-acute repeat dose toxicity, Oral, Gavage/Intubation, dose end: 14 day, group: systemic
rabbit [3] = settings: Prenatal developmental toxicity study; Oral; Gavage/Intubation; dose end: 19 GD; group: maternal; reproductive / reproductive performance / aborted / aborted + reproductive / reproductive performance / resorptions / resorptions + systemic…
dog [4] = settings: Subchronic oral toxicity in nonrodent, beagle, Gavage/Intubation, dose end: 91 day, group: systemic
rat [5] = settings: Peri- and post-natal toxicity study (Segment III), Oral, Gavage/Intubation, dose end: 1 generation
rat [6] = settings: Chronic toxicity, Oral, Gavage/Intubation, dose end: 182 day, group: systemic
rat [7] = settings: Multigenerational reproductive toxicity study, sprague dawley, Oral, Feed, dose end: 2 generation
dog [8] = settings: Subchronic oral toxicity in nonrodent, beagle, Feed, dose end: 6 month, group: systemic
rat [9] = settings: Peri- and post-natal toxicity study (Segment III), sprague dawley, Oral, Gavage/Intubation, dose end: 54 PND
rat [10] = settings: Carcinogenicity, wistar, Oral, Feed, dose end: 24 month, group: systemic
rat [11] = settings: Multigenerational reproductive toxicity study, wistar, Oral, Feed, dose end: 2 generation
rabbit [12] = settings: Prenatal developmental toxicity study; himalayan; Oral; Gavage/Intubation; dose end: 28 GD; group: maternal; systemic / in life observation / food consumption / food consumption + systemic / organ weight / adrenal gland / absolute + systemic / organ…
mouse [13] = settings: Carcinogenicity, other, Oral, Feed, dose end: 18 month, group: systemic
rat [14] = settings: Prenatal developmental toxicity study, wistar, Dermal, Topical, dose end: 19 GD
[15] = systemic / clinical chemistry / [other] / [other] + systemic / clinical chemistry / cytochrome p450, nos / cytochrome p450, nos + systemic…
[16] = systemic / clinical chemistry / [other] / [other]
[17] = systemic / hematology / leukocyte (wbc) count differential / leukocyte (wbc) + systemic / in life observation / body weight / body weight …
[18] = systemic / hematology / erythrocyte (rbc) count differential / erythrocyte (rbc) + systemic / hematology / hematocrit (hct) / hematocrit (…
[19] = systemic / in life observation / body weight / body weight + systemic / in life observation / clinical signs / [other] + systemic / in life …
[20] = systemic / clinical chemistry / alkaline phosphatase (alp/alk) / alkaline phosphatase (alp/alk) + systemic / clinical chemistry / protein / …
[21] = systemic / pathology microscopic / liver / hypertrophy + systemic / pathology microscopic / brain / infiltration cellular + systemic / …
[22] = group: maternal, reproductive / offspring survival early / dead fetuses / dead fetuses + reproductive / reproductive performance / dystocia / dystocia + …
[23] = group: maternal, reproductive / offspring survival early / litter size / litter size
[24] = group: parental, systemic / in life observation / clinical signs / body cold to touch + systemic / in life observation / clinical signs / cannibalism + …
[25] = group: parental, systemic / in life observation / clinical signs / body cold to touch + systemic / in life observation / clinical signs / dehydration + …
[26] = systemic / clinical chemistry / albumin / albumin + systemic / clinical chemistry / calcium / calcium + systemic / clinical chemistry / …
[27] = systemic / organ weight / kidney / absolute + systemic / pathology microscopic / intestine small / erosion
[28] = group: offspring, developmental / developmental landmark / nipple development / nipple development + developmental / developmental landmark / preputial …
[29] = group: parental, systemic / organ weight / epididymis / absolute + systemic / organ weight / epididymis / relative to body weight + systemic / organ weight…
[30] = group: reproductive, reproductive / reproductive performance / fertility / fertility
[31] = systemic / organ weight / adrenal gland / absolute + systemic / organ weight / adrenal gland / relative to body weight + systemic / clinical…
[32] = group: developmental, developmental / developmental landmark / preputial separation / preputial separation
[33] = group: parental, systemic / organ weight / [other] / absolute + systemic / organ weight / adrenal gland / absolute + systemic / organ weight / prostate / …
[34] = group: parental, systemic / pathology gross / kidney / dilatation
[35] = systemic / pathology microscopic / liver / eosinophilic focus + systemic / pathology microscopic / lung / foam cell aggregation
[36] = systemic / pathology microscopic / liver / eosinophilic focus + systemic / pathology microscopic / lung / foam cell aggregation + systemic…
[37] = group: offspring, systemic / organ weight / liver / absolute
[38] = group: parental, systemic / organ weight / epididymis / absolute + systemic / organ weight / adrenal gland / absolute
[39] = systemic / organ weight / adrenal gland / relative to body weight + systemic / organ weight / brain / relative to body weight + systemic / …
[40] = group: developmental, developmental / developmental landmark / anogenital distance (agd) / anogenital distance (agd)
[41] = group: developmental, developmental / developmental landmark / anogenital distance (agd) / anogenital distance (agd) + developmental / developmental malformation…
[42] = group: maternal, systemic / organ weight / adrenal gland / absolute
[43] = group: maternal, systemic / organ weight / adrenal gland / absolute + systemic / organ weight / liver / absolute

Compound CC(C)(C)c1cc(/C=C2\SC(N)=NC2=O)cc(C(C)(C)C)c1O.CS(=O)(=O)O [Darbufelone mesylate] has an LOAEL (mouse [1]; [15]) greater than 800 mg/kg/day, an NOAEL (mouse [1]; [15]) of no less than 800 mg/kg/day and an NEL (mouse [1]; systemic / organ weight / liver / absolute) of less than 35 mg/kg/day. The LEL (rat [2]; [16]) was 10 mg/kg/day, the NEL (rat [2]; [16]) was less than 10 mg/kg/day and the LOAEL (rat [2]; [17]) was greater than 1000 mg/kg/day. The NOAEL (rat [2]; [17]) was no less than 1000 mg/kg/day, the LOAEL (primate; [18]) was greater than 1000 mg/kg/day and the NOAEL (primate; [18]) was no less than 1000 mg/kg/day. It also gave an LEL (primate; [19]) of 100 mg/kg/day, an NEL (primate; [19]) of less than 100 mg/kg/day and an LOAEL (rabbit [3]) greater than 35 mg/kg/day. It also gave an NOAEL (rabbit [3]) of no less than 35 mg/kg/day, an LOAEL (dog [4]; [20]) greater than 10 mg/kg/day and an NOAEL (dog [4]; [20]) of no less than 10 mg/kg/day. For the same compound, the LEL (dog [4]; [21]) was 2 mg/kg/day, the NEL (dog [4]; [21]) was less than 2 mg/kg/day and the LEL (rat [5]; [22]) was 1 mg/kg/day. The NEL (rat [5]; [22]) was less than 1 mg/kg/day, the LOAEL (rat [5]; [23]) was greater than 2 mg/kg/day and the NOAEL (rat [5]; [23]) was no less than 2 mg/kg/day. It also gave an LEL (rat [5]; [24]) of 1 mg/kg/day, an NEL (rat [5]; [24]) of less than 1 mg/kg/day and an LOAEL (rat [5]; [25]) greater than 2 mg/kg/day. The NOAEL (rat [5]; [25]) was no less than 2 mg/kg/day, the LOAEL (rat [6]; [26]) was greater than 75 mg/kg/day and the NOAEL (rat [6]; [26]) was no less than 75 mg/kg/day. The LEL (rat [6]; [27]) was 5 mg/kg/day and the NEL (rat [6]; [27]) was less than 5 mg/kg/day.

For C=CC1(C)OC(=O)N(c2cc(Cl)cc(Cl)c2)C1=O (stereo unspecified) [Vinclozolin], the LEL (rat [7]; [28]) was 14.8 mg/kg/day, the LOAEL (rat [7]; [28]) was 14.8 mg/kg/day and the NEL (rat [7]; [28]) was 3 mg/kg/day. For the same compound, the NOAEL (rat [7]; [28]) was 3 mg/kg/day, the LOAEL (rat [7]; [29]) was 14.8 mg/kg/day and the NOAEL (rat [7]; [29]) was 3 mg/kg/day. For the same compound, the LEL (rat [7]; group: parental, systemic / pathology microscopic / adrenal gland / [other] + systemic / pathology microscopic / liver / hypertrophy) was 11.5 mg/kg/day, the NEL (rat [7]; group: parental, systemic / pathology microscopic / adrenal gland / [other] + systemic / pathology microscopic / liver / hypertrophy + systemic / clinical …) was 2.34 mg/kg/day and the LEL (rat [7]; [30]) was 74.7 mg/kg/day. It also gave an LOAEL (rat [7]; [30]) greater than 74.7 mg/kg/day, an NEL (rat [7]; [30]) of 14.8 mg/kg/day and an NOAEL (rat [7]; [30]) of no less than 74.7 mg/kg/day. The LOAEL (dog [8]; systemic / organ weight / adrenal gland / absolute + systemic / organ weight / adrenal gland / relative to body weight) was 7.5 mg/kg/day, the NEL (dog [8]; [31]) was 2.5 mg/kg/day and the NOAEL (dog [8]; [31]) was 2.5 mg/kg/day. The LEL (dog [8]; systemic / organ weight / adrenal gland / absolute + systemic / organ weight / adrenal gland / relative to body weight + systemic / organ …) was 7.5 mg/kg/day, the LEL (rat [9]; [32]) was 10 mg/kg/day and the LOAEL (rat [9]; [32]) was greater than 100 mg/kg/day. It also gave an NEL (rat [9]; [32]) of less than 10 mg/kg/day, an NOAEL (rat [9]; [32]) of no less than 100 mg/kg/day and an LOAEL (rat [9]; [33]) greater than 100 mg/kg/day. It also gave an NOAEL (rat [9]; [33]) of no less than 100 mg/kg/day, an LEL (rat [9]; [34]) of 10 mg/kg/day and an NEL (rat [9]; [34]) of less than 10 mg/kg/day. For the same compound, the LOAEL (rat [10]; [35]) was 2.3 mg/kg/day, the NOAEL (rat [10]; [35]) was less than 2.3 mg/kg/day and the LEL (rat [10]; [36]) was 2.3 mg/kg/day. It also gave an NEL (rat [10]; [36]) of less than 2.3 mg/kg/day, an LEL (rat [11]; [37]) of 4.1 mg/kg/day and an LOAEL (rat [11]; [37]) greater than 4.1 mg/kg/day. For the same compound, the NEL (rat [11]; [37]) was 2 mg/kg/day, the NOAEL (rat [11]; [37]) was no less than 4.1 mg/kg/day and the LEL (rat [11]; [38]) was 2 mg/kg/day. The LOAEL (rat [11]; [38]) was greater than 4.1 mg/kg/day, the NEL (rat [11]; [38]) was less than 2 mg/kg/day and the NOAEL (rat [11]; [38]) was no less than 4.1 mg/kg/day. For the same compound, the LEL (rabbit [12]) was 200 mg/kg/day, the LOAEL (rabbit [12]) was 200 mg/kg/day and the NEL (rabbit [12]) was 50 mg/kg/day. The NOAEL (rabbit [12]) was 50 mg/kg/day, the LOAEL (mouse [13]; systemic / in life observation / body weight / body weight gain) was 20.6 mg/kg/day and the LEL (mouse [13]; [39]) was 2.1 mg/kg/day. For the same compound, the NEL (mouse [13]; [39]) was less than 2.1 mg/kg/day, the NOAEL (mouse [13]; [39]) was 2.1 mg/kg/day and the LEL (rat [14]; [40]) was 180 mg/kg/day. For the same compound, the LOAEL (rat [14]; [40]) was 180 mg/kg/day, the NEL (rat [14]; [41]) was 60 mg/kg/day and the NOAEL (rat [14]; [41]) was 60 mg/kg/day. It also gave an LEL (rat [14]; [42]) of 180 mg/kg/day, an LOAEL (rat [14]; [42]) of 180 mg/kg/day and an NEL (rat [14]; [43]) of 60 mg/kg/day. The NOAEL (rat [14]; [43]) was 60 mg/kg/day.
